In patent US20240166609A1, “ANTIBACTERIAL COMPOUNDS” (BLACKSMITH MEDICINES, INC., priority 2021, published 2024) one finds MIC and IC50 data, which are given here for 14 compounds.

For one assay, the system named is E. coli ATCC25922. The assay can be described thus: Bacterial susceptibility testing, MIC by broth microdilution (CLSI). Particulars: Escherichia coli, 35° C., 18-24 h, read-out: MIC (μg/mL) E. coli ATCC25922. It is filed as cell-based. As to the method:
(§1) Minimal inhibitory concentrations (MIC) were determined by the broth microdilution method in accordance with the Clinical and Laboratory Standards Institute (CLSI) guidelines. In brief, organism suspensions were adjusted to a final inoculum between 3×10^5 and 7×10^5 colony-forming units (CFU)/mL. Drug dilutions and inocula were made in sterile, cation adjusted Mueller-Hinton Broth (Beckton Dickinson). In wells, an inoculum volume of 100 μL was mixed to 2 μL of DMSO with 2-fold serial dilutions of drug. All inoculated microdilution trays were incubated in ambient air at 35° C. for 18-24 h. Following incubation, the lowest concentration of the drug that prevented visible growth (OD600 nm<0.05) was recorded as the MIC. Performance of the assay was monitored by the use of laboratory quality-control strains and compounds with defined MIC spectrum, in accordance with CLSI guidelines

The subject of the next assay is K. pneumoniae ATCC13883. The assay is described as above. Format: cell-based. To be noted: Klebsiella pneumoniae, 35° C., 18-24 h, read-out: MIC (μg/mL) K. pneumoniae ATCC13883. As to the method:
as §1

Another assay deals with P. aeruginosa ATCC27835. Described as above. To be noted: Pseudomonas aeruginosa, 35° C., 18-24 h, read-out: MIC (μg/mL) P. aeruginosa ATCC27835. Format: cell-based. As to the method: as §1
The subject of the next assay is P. aeruginosa 209 PAO1. The assay is described as above. Format: cell-based. Particulars: Pseudomonas aeruginosa, 35° C., 18-24 h, read-out: MIC (μg/mL) P. aeruginosa 209 PAO1. As to the method: as §1
The next assay concerns the target T1, P. aeruginosa LpxC (Pseudomonas aeruginosa, UniProt P47205).
T1 sequence (P47205 1-303): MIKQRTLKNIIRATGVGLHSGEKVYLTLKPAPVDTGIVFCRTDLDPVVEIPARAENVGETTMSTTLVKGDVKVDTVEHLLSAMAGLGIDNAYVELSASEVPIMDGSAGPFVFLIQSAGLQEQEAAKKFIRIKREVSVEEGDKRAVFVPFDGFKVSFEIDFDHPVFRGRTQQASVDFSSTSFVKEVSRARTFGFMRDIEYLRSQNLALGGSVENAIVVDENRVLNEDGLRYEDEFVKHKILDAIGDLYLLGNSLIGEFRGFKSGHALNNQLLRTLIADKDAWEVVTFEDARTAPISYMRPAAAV
Nature of the assay: LpxC Binding Assay (Rapid Fire MS assay). Format: biochemical. As to the method:
(§2) IC50 values against E. coli and P. aeruginosa LpxC are determined using a Rapid Fire MS assay as previously described J. Med. Chem. 2012, 55, 1662-1670.

The next assay addresses T2, E. coli LpxC (Escherichia coli, UniProt P0A725).
T2 sequence (P0A725 1-305): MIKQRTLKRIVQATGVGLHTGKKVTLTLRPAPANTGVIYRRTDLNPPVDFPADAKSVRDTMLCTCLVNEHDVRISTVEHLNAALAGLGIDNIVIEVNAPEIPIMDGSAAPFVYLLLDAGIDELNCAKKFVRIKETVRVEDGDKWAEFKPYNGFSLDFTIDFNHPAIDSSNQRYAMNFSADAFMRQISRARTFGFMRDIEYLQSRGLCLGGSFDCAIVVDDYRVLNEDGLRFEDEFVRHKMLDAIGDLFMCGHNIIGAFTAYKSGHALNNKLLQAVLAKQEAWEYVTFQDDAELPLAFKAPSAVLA
Nature of the assay: LpxC Binding Assay (Rapid Fire MS assay). It is filed as biochemical. Here is the method: as §2

The target in another assay is K. pneumoniae LpxC (Klebsiella pneumoniae subsp. pneumoniae, UniProt A6T4N9). Nature of the assay: LpxC Binding Assay (Rapid Fire MS assay). Format: biochemical.
Sequence of K. pneumoniae LpxC (A6T4N9 whole entry): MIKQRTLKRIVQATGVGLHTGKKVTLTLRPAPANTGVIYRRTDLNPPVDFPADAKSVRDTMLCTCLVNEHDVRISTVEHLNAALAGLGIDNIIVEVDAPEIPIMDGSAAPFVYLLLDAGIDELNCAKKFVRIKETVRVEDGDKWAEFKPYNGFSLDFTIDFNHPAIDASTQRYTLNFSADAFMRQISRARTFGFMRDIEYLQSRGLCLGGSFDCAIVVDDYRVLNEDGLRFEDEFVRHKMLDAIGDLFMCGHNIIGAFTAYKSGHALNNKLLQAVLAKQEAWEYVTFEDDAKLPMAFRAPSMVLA

Values after ≈ are worked out from the molar mass of the structure shown.

On to `C[C@H](O)c1nccn1CC#Cc1ccc(-c2ccc(OCC(N)CO)cc2)cc1` (mixture of isomers) [Compound 7, 2-amino-3-((4′-(3-(2-((S)-1-hydroxyethyl)-1H-imidazol-1-yl)prop-1-yn-1-yl)-[1,1′-biphenyl]-4-yl)oxy)propan-1-ol], for which the MIC was 2 µg/mL (≈ 5.11 µM) with E. coli ATCC25922, 4 µg/mL (≈ 10.2 µM) in the assay with K. pneumoniae ATCC13883, 2 µg/mL (≈ 5.11 µM) in the assay on P. aeruginosa ATCC27835 and 2 µg/mL (≈ 5.11 µM) in the assay with P. aeruginosa 209 PAO1. The results for the IC50 at P. aeruginosa LpxC and at E. coli LpxC were 25.5 nM and 13.6 nM, respectively.
For the compound `C[C@H](O)c1nccn1[C@@H](C#Cc1ccc(-c2ccc(CO[C@@H]3C[C@H]3N)cc2)cc1)CO` (racemic) [Compound 9, (S)-4-(4′-(((trans)-2-aminocyclopropoxy)methyl)-[1,1′-biphenyl]-4-yl)-2-(2-((S)-1-hydroxyethyl)-1H-imidazol-1-yl)but-3-yn-1-ol], the MIC with K. pneumoniae ATCC13883 amounted to 4 µg/mL (≈ 9.58 µM); in the assay on P. aeruginosa ATCC27835, 4 µg/mL (≈ 9.58 µM); in the assay with P. aeruginosa 209 PAO1, 2 µg/mL (≈ 4.79 µM). For the same compound, the figures for the IC50 at K. pneumoniae LpxC, on P. aeruginosa LpxC and at E. coli LpxC were 3.9 nM, 47.7 nM and 1.8 nM, respectively.
As for `C[C@H](O)c1nccn1[C@@H](C#Cc1ccc(-c2ccc(O[C@@H]3C[C@H]3NCCF)cc2)cc1)CO` (racemic) [Compound 12, (S)-4-(4′-((trans)-2-((2-fluoroethyl)amino)cyclopropoxy)-[1,1′-biphenyl]-4-yl)-2-(2-((S)-1-hydroxyethyl)-1H-imidazol-1-yl)but-3-yn-1-ol], the MIC turned out to be 2 µg/mL (≈ 4.45 µM) with K. pneumoniae ATCC13883, 4 µg/mL (≈ 8.9 µM) with P. aeruginosa ATCC27835 and 2 µg/mL (≈ 4.45 µM) with P. aeruginosa 209 PAO1. For the same compound, the figures for the IC50 at K. pneumoniae LpxC, at P. aeruginosa LpxC and at E. coli LpxC were 1.1 nM, 6 nM and less than 0.5 nM, respectively.
On to `C[C@H](O)c1nccn1[C@@H](C#Cc1ccc(-c2ccc(OCC3COCCO3)cc2)cc1)CO` (mixture of isomers) [Compound 13, (2S)-4-(4′-((1,4-dioxan-2-yl)methoxy)-[1,1′-biphenyl]-4-yl)-2-(2-((S)-1-hydroxyethyl)-1H-imidazol-1-yl)but-3-yn-1-ol], for which the MIC was 1 µg/mL (≈ 2.23 µM) in the assay on K. pneumoniae ATCC13883, 4 µg/mL (≈ 8.92 µM) in the assay with P. aeruginosa ATCC27835 and 2 µg/mL (≈ 4.46 µM) in the assay on P. aeruginosa 209 PAO1. The IC50 is 0.9 nM at K. pneumoniae LpxC, 5.5 nM at P. aeruginosa LpxC and less than 0.5 nM at E. coli LpxC.
With `C[C@H](O)c1nccn1[C@@H](C#Cc1ccc(-c2ccc(OCC(C)(O)CO)cc2)cc1)CO` (mixture of isomers) [Compound 16, 3-((4′-((S)-4-hydroxy-3-(2-((S)-1-hydroxyethyl)-1H-imidazol-1-yl)but-1-yn-1-yl)-[1,1′-biphenyl]-4-yl)oxy)-2-methylpropane-1,2-diol], the MIC in the assay with K. pneumoniae ATCC13883 is 4 µg/mL (≈ 9.16 µM); in the assay on P. aeruginosa ATCC27835 it was 4 µg/mL (≈ 9.16 µM); in the assay with P. aeruginosa 209 PAO1, 2 µg/mL (≈ 4.58 µM). For the same compound, the IC50 stood at 2.2 nM on K. pneumoniae LpxC, 8.3 nM on P. aeruginosa LpxC and 1.3 nM at E. coli LpxC.
As for `C[C@H](O)c1nccn1[C@@H](C#Cc1ccc(-c2ccc(OCCC(O)CO)cc2)cc1)CO` (mixture of isomers) [Compound 17, 4-((4′-((S)-4-hydroxy-3-(2-((S)-1-hydroxyethyl)-1H-imidazol-1-yl)but-1-yn-1-yl)-[1,1′-biphenyl]-4-yl)oxy)butane-1,2-diol], the MIC in the assay with K. pneumoniae ATCC13883 is 2 µg/mL (≈ 4.58 µM); with P. aeruginosa ATCC27835, 2 µg/mL (≈ 4.58 µM); in the assay on P. aeruginosa 209 PAO1, 1 µg/mL (≈ 2.29 µM). The IC50 at K. pneumoniae LpxC amounted to 1 nM; on P. aeruginosa LpxC, 6.6 nM; on E. coli LpxC it was 0.5 nM.
Consider `C[C@H](O)c1nccn1[C@@H](C#Cc1ccc(-c2ccc(OC(CO)CCO)cc2)cc1)CO` (mixture of isomers) [Compound 22, 2-((4′-((S)-4-hydroxy-3-(2-((S)-1-hydroxyethyl)-1H-imidazol-1-yl)but-1-yn-1-yl)-[1,1′-biphenyl]-4-yl)oxy)butane-1,4-diol], for which the MIC with K. pneumoniae ATCC13883 stood at 4 µg/mL (≈ 9.16 µM); with P. aeruginosa ATCC27835, 4 µg/mL (≈ 9.16 µM); in the assay with P. aeruginosa 209 PAO1, 1 µg/mL (≈ 2.29 µM). Also, the concentration for half-maximal inhibition (IC50) amounted to 1.5 nM on K. pneumoniae LpxC, 8 nM at P. aeruginosa LpxC and 0.8 nM on E. coli LpxC.
Consider `C[C@H](O)c1nccn1[C@@H](C#Cc1ccc(-c2ccc(C3CC(NC4C(O)OC(CO)C(O)C4O)C3)cc2)cc1)CO` (stereo partly drawn) [Compound 39, 3-((3-(4′-((S)-4-hydroxy-3-(2-((S)-1-hydroxyethyl)-1H-imidazol-1-yl)but-1-yn-1-yl)-[1,1′-biphenyl]-4-yl)cyclobutyl)amino)-6-(hydroxymethyl)tetrahydro-2H-pyran-2,4,5-triol], for which the MIC in the assay with E. coli ATCC25922 was 8 µg/mL (≈ 14.2 µM); with K. pneumoniae ATCC13883, 32 µg/mL (≈ 56.8 µM); in the assay with P. aeruginosa ATCC27835, 8 µg/mL (≈ 14.2 µM); in the assay on P. aeruginosa 209 PAO1 it was 4 µg/mL (≈ 7.1 µM).
Turning to `C[C@H](O)c1nccn1[C@@H](C#Cc1ccc(-c2ccc(C3CC(NC(=O)CC#N)C3)cc2)cc1)CO` (stereo partly drawn) [Compound 40, 2-cyano-N-(3-(4′-((S)-4-hydroxy-3-(2-((S)-1-hydroxyethyl)-1H-imidazol-1-yl)but-1-yn-1-yl)-[1,1′-biphenyl]-4-yl)cyclobutyl)acetamide], the MIC stood at 0.5 µg/mL (≈ 1.07 µM) with E. coli ATCC25922, 2 µg/mL (≈ 4.27 µM) with K. pneumoniae ATCC13883, 2 µg/mL (≈ 4.27 µM) with P. aeruginosa ATCC27835 and 4 µg/mL (≈ 8.54 µM) with P. aeruginosa 209 PAO1.
Regarding `C[C@H](O)c1nccn1[C@@H](C#Cc1ccc(-c2ccc(C[C@@H]3COC[C@H]3O)cc2)cc1)CO` [Compound 41, (3S,4R)-4-((4′-((S)-4-hydroxy-3-(2-((S)-1-hydroxyethyl)-1H-imidazol-1-yl)but-1-yn-1-yl)-[1,1′-biphenyl]-4-yl)methyl)tetrahydrofuran-3-ol], the MIC in the assay with E. coli ATCC25922 amounted to 0.5 µg/mL (≈ 1.16 µM); in the assay with K. pneumoniae ATCC13883, 2 µg/mL (≈ 4.62 µM); with P. aeruginosa ATCC27835, 2 µg/mL (≈ 4.62 µM); in the assay on P. aeruginosa 209 PAO1, 4 µg/mL (≈ 9.25 µM).
As to `C[C@H](O)c1nccn1CC#Cc1ccc(-c2ccc(O[C@@H]3COC[C@H]3O)cc2)cc1` [Compound 42, (3R,4R)-4-((4′-(3-(2-((S)-1-hydroxyethyl)-1H-imidazol-1-yl)prop-1-yn-1-yl)-[1,1′-biphenyl]-4-yl)oxy)tetrahydrofuran-3-ol], the MIC in the assay with E. coli ATCC25922 stood at 0.5 µg/mL (≈ 1.24 µM); in the assay on K. pneumoniae ATCC13883 it was 0.5 µg/mL (≈ 1.24 µM); in the assay on P. aeruginosa ATCC27835 it was 2 µg/mL (≈ 4.94 µM); with P. aeruginosa 209 PAO1, 2 µg/mL (≈ 4.94 µM).
As to `C[C@H](O)c1nccn1[C@@H](C#Cc1ccc(-c2ccc(O[C@@H]3COC[C@H]3O)cc2)cc1)CCO` [Compound 43, (3R,4R)-4-((4′-((R)-5-hydroxy-3-(2-((S)-1-hydroxyethyl)-1H-imidazol-1-yl)pent-1-yn-1-yl)-[1,1′-biphenyl]-4-yl)oxy)tetrahydrofuran-3-ol], the MIC in the assay on E. coli ATCC25922 amounted to 1 µg/mL (≈ 2.23 µM); with K. pneumoniae ATCC13883 it was 2 µg/mL (≈ 4.46 µM); in the assay with P. aeruginosa ATCC27835, 2 µg/mL (≈ 4.46 µM); in the assay on P. aeruginosa 209 PAO1, 4 µg/mL (≈ 8.92 µM).
Turning to `COCCN1C[C@@H](O)[C@H](Oc2ccc(-c3ccc(C#C[C@@H](CO)n4ccnc4[C@H](C)O)cc3)cc2)C1` [Compound 44, (3R,4R)-4-((4′-((S)-4-hydroxy-3-(2-((S)-1-hydroxyethyl)-1H-imidazol-1-yl)but-1-yn-1-yl)-[1,1′-biphenyl]-4-yl)oxy)-1-(2-methoxyethyl)pyrrolidin-3-ol], the MIC in the assay with E. coli ATCC25922 was 2 µg/mL (≈ 4.07 µM); in the assay on K. pneumoniae ATCC13883, 4 µg/mL (≈ 8.14 µM); with P. aeruginosa ATCC27835 it was 4 µg/mL (≈ 8.14 µM); with P. aeruginosa 209 PAO1, 4 µg/mL (≈ 8.14 µM).
As to `C[C@H](O)c1nccn1[C@@H](C#Cc1ccc(-c2ccc(O[C@@H]3CN(CC#N)C[C@H]3O)cc2)cc1)CO` [Compound 45, 2-((3R,4R)-3-hydroxy-4-((4′-((S)-4-hydroxy-3-(2-((S)-1-hydroxyethyl)-1H-imidazol-1-yl)but-1-yn-1-yl)-[1,1′-biphenyl]-4-yl)oxy)pyrrolidin-1-yl)acetonitrile], the MIC was 16 µg/mL (≈ 33.9 µM) in the assay with E. coli ATCC25922, 8 µg/mL (≈ 16.9 µM) in the assay on K. pneumoniae ATCC13883, 2 µg/mL (≈ 4.23 µM) with P. aeruginosa ATCC27835 and 2 µg/mL (≈ 4.23 µM) in the assay on P. aeruginosa 209 PAO1.
